Experimental data from US12691112B2, “FGFR tyrosine kinase inhibitors for the treatment of urothelial carcinoma” (Janssen Pharmaceutica NV, priority 2019, dated 2026).
Values joined by “and” are separate entries in the source; they are usually repeats but may differ in a detail not shown here. Equal entries are not always repeated. Where two headings read alike, the source gives them in different places.

Tested on: metastatic or surgically unresectable urothelial cancer harboring select FGFR genetic alterations
Details: for Disease control rate (CR + PR + SD) / Inevaluable / Objective response rate (CR + PR) / Progressive disease (PD) / Confirmed complete response (CR) / Confirmed partial response (PR) / 6-month progression-free survival rate (95% CI), among responders / 9-month progression-free survival rate (95% CI), among responders / 12-month progression-free survival rate (95% CI), among responders: chemo relapsed/refractory
Excerpt: The study comprises a Screening Phase (molecular screening at any time prior to first dose and study screening within 30 days of first dose), a treatment phase, and a post-treatment follow-up phase. The treatment phase comprises the period from first dose until the end-of-treatment visit. The follow-up phase extends until the subject has died, withdraws consent, is lost to follow-up, or the end of study, whichever comes first.
Included patients were adults with measurable urothelial cancer per Response Evaluation Criteria in Solid Tumors version 1.1.
Patients were required to have at least 1 FGFR2/FGFR3 mutation or fusion per central lab testing of RNA from formalin-fixed, paraffin-embedded tumor samples, using a custom reverse transcriptase polymerase chain reaction assay.
Patients were contacted every 12 weeks for survival assessment.
The study was designed to enroll 180 patients with specified FGFR alterations. Of these, ≥88 were required in the selected regimen. […] Responses were assessed by investigators and an independent radiological review committee. Progression-free survival and overall survival were estimated using Kaplan-Meier product limit method. Data from patients who were progression free and alive or with unknown status were censored at last tumor assessment. Efficacy end points were analysed at primary analysis cut-off.

[1] = 10 mg 7 on/7 off, Mutation and fusion: FGFR3-S249C/FGFR3-Y373C/FGFR2-CASP7/FGFR3-BAIAP2L1/FGFR3-TACC3 V1/FGFR3-TACC3 V3, n=1
[2] = 10 mg 7 on/7 off, Mutation: FGFR3-G370C/FGFR3-S249C, n=1
[3] = 10 mg 7 on/7 off, Mutation: FGFR3-R248C/FGFR3-Y373C, n=1
[4] = 10 mg 7 on/7 off, Mutation: FGFR3-S249C/FGFR3-Y373C, n=1
[5] = Regimen 1, 10 mg intermittent (n=33)
[6] = Regimen 2, 6 mg continuous (n=78)
[7] = Regimen 3, 8 mg continuous (n=99)
[8] = Total (all 3 regimens), Any FGFR alterations, n=189
[9] = Total (all 3 regimens), FGFR fusions (excluding mutations), 6 responders
[10] = Total (all 3 regimens), FGFR fusions (excluding mutations), n=35
[11] = Total (all 3 regimens), FGFR mutations (excluding fusions), 58 responders
[12] = Total (all 3 regimens), FGFR mutations (excluding fusions), n=147
[13] = Total (all 3 regimens), FGFR mutations and fusions, 4 responders
[14] = Total (all 3 regimens), FGFR mutations and fusions, n=7
[15] = Total (all 3 regimens), Fusion: FGFR2-CASP7/FGFR3-BAIAP2L1, n=1
[16] = Total (all 3 regimens), Fusion: FGFR2-CASP7/FGFR3-TACC3 V3, n=1
[17] = Total (all 3 regimens), Mutation and fusion: FGFR3-G370C/FGFR2-BICC1, n=1
[18] = Total (all 3 regimens), Mutation and fusion: FGFR3-G370C/FGFR3-TACC3 V1, n=1
[19] = Total (all 3 regimens), Mutation and fusion: FGFR3-R248C/FGFR3-S249C/FGFR3-TACC3 V1, n=1
[20] = Total (all 3 regimens), Mutation and fusion: FGFR3-R248C/FGFR3-TACC3 V1, n=2
[21] = Total (all 3 regimens), Mutation and fusion: FGFR3-S249C/FGFR3-BAIAP2L1, n=1
[22] = Total (all 3 regimens), Mutation and fusion: FGFR3-S249C/FGFR3-Y373C/FGFR2-CASP7/FGFR3-BAIAP2L1/FGFR3-TACC3 V1/FGFR3-TACC3 V3, n=1
[23] = Total (all 3 regimens), Mutation: FGFR3-G370C/FGFR3-S249C, n=2
[24] = Total (all 3 regimens), Mutation: FGFR3-R248C/FGFR3-Y373C, n=2
[25] = Total (all 3 regimens), Mutation: FGFR3-S249C/FGFR3-Y373C, n=1

SMILES: COc1cc(OC)cc(N(CCNC(C)C)c2ccc3ncc(-c4cnn(C)c4)nc3c2)c1 [erdafitinib, N-(3,5-dimethoxy-phenyl)-N′-(1-methylethyl)-N-[3-(1-methyl-1H-pyrazol-4-yl)quinoxalin-6-yl]ethane-1,2-diamine]
- Disease control rate (CR + PR + SD) [1]: 1 (100.0%)
- Inevaluable [1]: 0%
- Objective response rate (CR + PR) [1]: 0%
- Progressive disease (PD) [1]: 0%
- Confirmed complete response (CR) [2]: 0%
- Confirmed partial response (PR) [2]: 1 (100.0%)
- Disease control rate (CR + PR + SD) [2]: 1 (100.0%)
- Inevaluable [2]: 0%
- Objective response rate (CR + PR) [2]: 1 (100.0%)
- Progressive disease (PD) [2]: 0%
- Confirmed complete response (CR) [3]: 0%
- Confirmed partial response (PR) [3]: 1 (100.0%)
- Disease control rate (CR + PR + SD) [3]: 1 (100.0%)
- Inevaluable [3]: 0%
- Objective response rate (CR + PR) [3]: 1 (100.0%)
- Progressive disease (PD) [3]: 0%
- Confirmed complete response (CR) [4]: 0%
- Confirmed partial response (PR) [4]: 0%
- Disease control rate (CR + PR + SD) [4]: 1 (100.0%)
- Inevaluable [4]: 0%
- Objective response rate (CR + PR) [4]: 0%
- Progressive disease (PD) [4]: 0%
- Complete response per investigator assessment [5]: 1 (3) %
- Not evaluable or unknown per investigator assessment [5]: 2 (6) %
- Objective response rate per investigator assessment [5]: 7 (21) %
- Partial response per investigator assessment [5]: 6 (18) %
- Progressive disease per investigator assessment [5]: 6 (18) %
- Stable disease per investigator assessment [5]: 18 (55) %
- Objective response rate per investigator assessment (Regimen 1, 10 mg intermittent, liver metastases): 3/11 (27) %
- Complete response per investigator assessment [6]: 3 (4) %
- Not evaluable or unknown per investigator assessment [6]: 5(6) %
- Objective response rate per investigator assessment [6]: 27 (35) %
- Partial response per investigator assessment [6]: 24 (31) %
- Progressive disease per investigator assessment [6]: 16 (21) %
- Objective response rate per investigator assessment (Regimen 2, 6 mg continuous, bone metastases): 6/15 (40) %
- Not evaluable or unknown per investigator assessment [7]: 2 (2.0) %
- Objective response rate per investigator assessment [7]: 40.4% and 40% and 40 (40.4) %
- Partial response per investigator assessment [7]: 37 (37.4) %
- Progressive disease per investigator assessment [7]: 18 (18.2) %
- Stable disease per investigator assessment [7]: 39% and 39 (39.4) %
- Objective response rate per investigator assessment (Regimen 3, 8 mg continuous, with FGFR3 mutations (n=74)): 48.6% and 36/74 (48.6) %
- Median DoR (95% CI), investigator assessment (Regimen 3, chemotherapy-refractory patients, N = 87): 5.55 (4.21, 7.00) months
- Confirmed complete response (CR) [8]: 7 (3.7%)
- Confirmed partial response (PR) [8]: 61 (32.3%)
- Disease control rate (CR + PR + SD) [8]: 147 (77.8%)
- Inevaluable [8]: 8 (4.2%)
- Objective response rate (CR + PR) [8]: 68 (36.0%)
- Progressive disease (PD) [8]: 34 (18.0%)
- 6-month progression-free survival rate (95% CI), among responders [9]: 0.50 (0.11, 0.80)
- 9-month progression-free survival rate (95% CI), among responders [9]: 0.50 (0.11, 0.80)
- 12-month progression-free survival rate (95% CI), among responders [9]: 0.50 (0.11, 0.80)
- Confirmed complete response (CR) [10]: 0%
- Confirmed partial response (PR) [10]: 6 (17.1%)
- Disease control rate (CR + PR + SD) [10]: 25 (71.4%)
- Inevaluable [10]: 2 (5.7%)
- Objective response rate (CR + PR) [10]: 6 (17.1%)
- Progressive disease (PD) [10]: 8 (22.9%)
- 6-month progression-free survival rate (95% CI), among responders [11]: 0.45 (0.32, 0.58)
- 9-month progression-free survival rate (95% CI), among responders [11]: 0.29 (0.17, 0.42)
- 12-month progression-free survival rate (95% CI), among responders [11]: 0.22 (0.12, 0.35)
- Confirmed complete response (CR) [12]: 6 (4.1%)
- Confirmed partial response (PR) [12]: 52 (35.4%)
- Disease control rate (CR + PR + SD) [12]: 117 (79.6%)
- Inevaluable [12]: 5 (3.4%)
- Objective response rate (CR + PR) [12]: 58 (39.5%)
- Progressive disease (PD) [12]: 25 (17.0%)
- 6-month progression-free survival rate (95% CI), among responders [13]: 0.50 (0.06, 0.84)
- 9-month progression-free survival rate (95% CI), among responders [13]: 0.50 (0.06, 0.84)
- 12-month progression-free survival rate (95% CI), among responders [13]: 0.25 (0.01, 0.67)
- Confirmed complete response (CR) [14]: 1 (14.3%)
- Confirmed partial response (PR) [14]: 3 (42.9%)
- Disease control rate (CR + PR + SD) [14]: 5 (71.4%)
- Inevaluable [14]: 1 (14.3%)
- Objective response rate (CR + PR) [14]: 4 (57.1%)
- Progressive disease (PD) [14]: 1 (14.3%)
- Confirmed complete response (CR) [15]: 0%
- Confirmed partial response (PR) [15]: 0%
- Disease control rate (CR + PR + SD) [15]: 1 (100.0%)
- Inevaluable [15]: 0%
- Objective response rate (CR + PR) [15]: 0%
- Progressive disease (PD) [15]: 0%
- Confirmed complete response (CR) [16]: 0%
- Confirmed partial response (PR) [16]: 0%
- Disease control rate (CR + PR + SD) [16]: 0%
- Inevaluable [16]: 1 (100.0%)
- Objective response rate (CR + PR) [16]: 0%
- Progressive disease (PD) [16]: 0%
- Confirmed complete response (CR) [17]: 1 (100.0%)
- Confirmed partial response (PR) [17]: 0%
- Disease control rate (CR + PR + SD) [17]: 1 (100.0%)
- Inevaluable [17]: 0%
- Objective response rate (CR + PR) [17]: 1 (100.0%)
- Progressive disease (PD) [17]: 0%
- Confirmed complete response (CR) [18]: 0%
- Confirmed partial response (PR) [18]: 1 (100.0%)
- Disease control rate (CR + PR + SD) [18]: 1 (100.0%)
- Inevaluable [18]: 0%
- Objective response rate (CR + PR) [18]: 1 (100.0%)
- Progressive disease (PD) [18]: 0%
- Confirmed complete response (CR) [19]: 0%
- Confirmed partial response (PR) [19]: 1 (100.0%)
- Disease control rate (CR + PR + SD) [19]: 1 (100.0%)
- Inevaluable [19]: 0%
- Objective response rate (CR + PR) [19]: 1 (100.0%)
- Progressive disease (PD) [19]: 0%
- Confirmed complete response (CR) [20]: 0%
- Confirmed partial response (PR) [20]: 1 (50.0%)
- Disease control rate (CR + PR + SD) [20]: 1 (50.0%)
- Inevaluable [20]: 1 (50.0%)
- Objective response rate (CR + PR) [20]: 1 (50.0%)
- Progressive disease (PD) [20]: 0%
- Confirmed complete response (CR) [21]: 0%
- Confirmed partial response (PR) [21]: 0%
- Disease control rate (CR + PR + SD) [21]: 0%
- Inevaluable [21]: 0%
- Objective response rate (CR + PR) [21]: 0%
- Progressive disease (PD) [21]: 1 (100.0%)
- Confirmed complete response (CR) [22]: 0%
- Confirmed partial response (PR) [22]: 0%
- Disease control rate (CR + PR + SD) [22]: 1 (100.0%)
- Inevaluable [22]: 0%
- Objective response rate (CR + PR) [22]: 0%
- Progressive disease (PD) [22]: 0%
- Confirmed complete response (CR) [23]: 0%
- Confirmed partial response (PR) [23]: 1 (50.0%)
- Disease control rate (CR + PR + SD) [23]: 2 (100.0%)
- Inevaluable [23]: 0%
- Objective response rate (CR + PR) [23]: 1 (50.0%)
- Progressive disease (PD) [23]: 0%
- Confirmed complete response (CR) [24]: 0%
- Confirmed partial response (PR) [24]: 2 (100.0%)
- Disease control rate (CR + PR + SD) [24]: 2 (100.0%)
- Inevaluable [24]: 0%
- Objective response rate (CR + PR) [24]: 2 (100.0%)
- Progressive disease (PD) [24]: 0%
- Confirmed complete response (CR) [25]: 0%
- Confirmed partial response (PR) [25]: 0%
- Disease control rate (CR + PR + SD) [25]: 1 (100.0%)
- Inevaluable [25]: 0%
- Objective response rate (CR + PR) [25]: 0%
- Progressive disease (PD) [25]: 0%
